Measured values: US20230114728A1 (Venatorx Pharmaceuticals, Inc., priority 2019, published 2023)
Converted amounts (≈) assume the structure as drawn. Read-outs that look alike come from different tables or passages of the source.

Columns and labels:
Format in all cases: cell-based
A. baumannii ATCC 19606 = experiment: Broth microdilution MIC in CAMHB; settings: Acinetobacter baumannii, ATCC19606; MHB; read-out: Minimum Inhibitory Concentration, A. baumannii ATCC 19606
How it was run: (§1)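 Per CLSI broth microdilution, colonies were grown 3-5 h at 37° C in cation-adjusted Mueller Hinton broth, then diluted to a starting inoculum of 2-8×10^5 CFU/mL against 2-fold serial compound dilutions. Plates were incubated 16-20 h at 37° C, and MIC was read visually as the lowest concentration with no growth.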

[1] = system: K. pneumoniae UMM producing SHV-5 and KPC-2; experiment: Broth microdilution MIC in CAMHB; settings: Klebsiella pneumoniae, read-out: Minimum Inhibitory Concentration, K. pneumoniae UMM
How it was run: as §1

E. coli 901C = experiment: Broth microdilution MIC in CAMHB; settings: Escherichia coli; E. coli 901C (hyper-permeable); MHB; read-out: Minimum Inhibitory Concentration, E. coli 901C
How it was run: as §1

[2] = system: P. aeruginosa (ΔmexAB-oprM); experiment: Broth microdilution MIC in CAMHB; settings: Pseudomonas aeruginosa, read-out: Minimum Inhibitory Concentration, P. aeruginosa ΔmexAB-OprM
How it was run: as §1

P. aeruginosa ATCC 35151 = experiment: Broth microdilution MIC in CAMHB; settings: Pseudomonas aeruginosa, ATCC35151; MHB; hyper-permeable strain; read-out: Minimum Inhibitory Concentration, P. aeruginosa ATCC 35151
How it was run: as §1

N. gonorrhoeae WHO Z = experiment: Liquid broth MIC in Fastidious broth; settings: Neisseria gonorrhoeae
How it was run: (§2)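 Mosaic-PBP2 strains grown 24 h on chocolate agar (36 °C, 5% CO2), then direct-suspended in saline and OD600-adjusted. Twofold compound dilutions in Fastidious broth inoculated at 5×10^5 CFU/mL and incubated ~24 h at 36 °C, 5% CO2. MIC read visually as lowest concentration with <10% growth versus full-growth wells.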

N. gonorrhoeae WHO K = experiment: Liquid broth MIC in Fastidious broth; settings: Neisseria gonorrhoeae
How it was run: as §2

N. gonorrhoeae H041 = experiment: Liquid broth MIC in Fastidious broth; settings: Neisseria gonorrhoeae
How it was run: as §2

[3] = system: N. gonorrhoeae ATCC 49226; experiment: Liquid broth MIC in Fastidious broth; settings: Neisseria gonorrhoeae, ATCC49226, Fastidious broth
How it was run: (§3)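 Colonies were swabbed from chocolate agar after 24 h growth and standardised by optical density at 600 nm. Compounds were serially diluted twofold in Fastidious broth, and bacteria added to give 5×10^5 CFU/mL. After about 24 h at 36 °C in 5% CO2, the lowest concentration allowing under 10% growth was taken as MIC.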

N. gonorrhoeae WHO L = experiment: Liquid broth MIC in Fastidious broth; settings: Neisseria gonorrhoeae, Fastidious broth
How it was run: as §3

N. gonorrhoeae FA1090 = experiment: Liquid broth MIC in Fastidious broth; settings: Neisseria gonorrhoeae, Fastidious broth
How it was run: as §3

N. gonorrhoeae WHO G = experiment: Liquid broth MIC in Fastidious broth; settings: Neisseria gonorrhoeae, Fastidious broth
How it was run: as §3

N. gonorrhoeae WHO Q = experiment: Liquid broth MIC in Fastidious broth; settings: Neisseria gonorrhoeae
How it was run: as §2

[4] = read-out: Minimum Inhibitory Concentration, N. gonorrhoeae WHO Z
[5] = read-out: Minimum Inhibitory Concentration, N. gonorrhoeae WHO K
[6] = H041, read-out: Minimum Inhibitory Concentration, N. gonorrhoeae H041
[7] = N. gonorrhoeae strain ATCC 49226, read-out: Minimum Inhibitory Concentration, N. gonorrhoeae ATCC 49226
[8] = N. gonorrhoeae strain WHO L, read-out: Minimum Inhibitory Concentration, N. gonorrhoeae WHO L
[9] = N. gonorrhoeae strain FA1090, read-out: Minimum Inhibitory Concentration, N. gonorrhoeae FA1090
[10] = N. gonorrhoeae strain WHO G, read-out: Minimum Inhibitory Concentration, N. gonorrhoeae WHO G
[11] = read-out: Minimum Inhibitory Concentration, N. gonorrhoeae WHO Q
[12] = read-out: Minimum Inhibitory Concentration, WHO Z
[13] = read-out: Minimum Inhibitory Concentration, WHO K
[14] = H041, read-out: Minimum Inhibitory Concentration, H041
[15] = N. gonorrhoeae ATCC 49226, read-out: Minimum Inhibitory Concentration, ATCC 49226
[16] = N. gonorrhoeae WHO L, read-out: Minimum Inhibitory Concentration, WHO L
[17] = N. gonorrhoeae FA1090, read-out: Minimum Inhibitory Concentration, FA1090
[18] = N. gonorrhoeae WHO G, read-out: Minimum Inhibitory Concentration, WHO G
[19] = read-out: Minimum Inhibitory Concentration, WHO Q

SMILES | MIC (A. baumannii ATCC 19606) [µg/mL] | MIC [1] [µg/mL] | MIC (E. coli 901C) [µg/mL] | MIC [2] [µg/mL] | MIC (P. aeruginosa ATCC 35151) [µg/mL] | MIC (N. gonorrhoeae WHO Z; [4]) [µg/mL] | MIC (N. gonorrhoeae WHO K; [5]) [µg/mL] | MIC (N. gonorrhoeae H041; [6]) [µg/mL] | MIC [3, 7] [µg/mL] | MIC (N. gonorrhoeae WHO L; [8]) [µg/mL] | MIC (N. gonorrhoeae FA1090; [9]) [µg/mL] | MIC (N. gonorrhoeae WHO G; [10]) [µg/mL] | MIC (N. gonorrhoeae WHO Q; [11]) [µg/mL] | MIC (N. gonorrhoeae WHO Z; [12]) [µg/mL] | MIC (N. gonorrhoeae WHO K; [13]) [µg/mL] | MIC (N. gonorrhoeae H041; [14]) [µg/mL] | MIC [3, 15] [µg/mL] | MIC (N. gonorrhoeae WHO L; [16]) [µg/mL] | MIC (N. gonorrhoeae FA1090; [17]) [µg/mL] | MIC (N. gonorrhoeae WHO G; [18]) [µg/mL] | further results
CCN1CCN(C(=O)N[C@@H](C(=O)N[C@H]2Cc3cccc(C(=O)O)c3OB2O)c2c(O)cc(O)cc2F)C(=O)C1=O (single isomer, unassigned) [Example 182] | 32 to 64 (≈ 57.3 to 115 µM) | 8 to 16 (≈ 14.3 to 28.7 µM) | < 0.25 | 8 to 16 (≈ 14.3 to 28.7 µM) | 2 to 4 (≈ 3.58 to 7.16 µM) | 16 to 32 (≈ 28.7 to 57.3 µM) | 16 to 32 (≈ 28.7 to 57.3 µM) | > 64 | 4 to 8 (≈ 7.16 to 14.3 µM) | 16 to 32 (≈ 28.7 to 57.3 µM) | < 0.125 | 1 to 2 (≈ 1.79 to 3.58 µM) | 16 to 32 (≈ 28.7 to 57.3 µM) | – | – | – | – | – | – | – | –
NCCN1CCN(C(=O)N[C@@H](C(=O)N[C@H]2Cc3cccc(C(=O)O)c3OB2O)c2ccc(O)c(Cl)c2F)C(=O)C1=O (single isomer, unassigned) [Example 186] | > 128 | 32 to 64 (≈ 54.1 to 108 µM) | 0.5 to 1 (≈ 0.845 to 1.69 µM) | 8 to 16 (≈ 13.5 to 27 µM) | < 0.25 | > 64 | > 64 | > 64 | 16 to 32 (≈ 27 to 54.1 µM) | > 64 | 0.25 to 0.5 (≈ 0.422 to 0.845 µM) | 4 to 8 (≈ 6.76 to 13.5 µM) | > 64 | – | – | – | – | – | – | – | –
NCCN1CCN(C(=O)N[C@H](C(=O)N[C@H]2Cc3cccc(C(=O)O)c3OB2O)c2ccc(O)c(Cl)c2F)C(=O)C1=O (single isomer, unassigned) [Example 187] | > 128 | > 128 | 2 to 4 (≈ 3.38 to 6.76 µM) | 32 to 64 (≈ 54.1 to 108 µM) | 2 to 4 (≈ 3.38 to 6.76 µM) | > 64 | > 64 | > 64 | > 64 | > 64 | 4 to 8 (≈ 6.76 to 13.5 µM) | > 64 | > 64 | – | – | – | – | – | – | – | –
CCN1CCN(C(=O)N[C@@H](C(=O)N[C@H]2Cc3ccc(F)c(C(=O)O)c3OB2O)c2c(Cl)cc(O)c(O)c2F)C(=O)C1=O (single isomer, unassigned) [Example 207] | – | – | – | – | – | – | – | – | – | – | – | – | – | 16 to 32 (≈ 26.2 to 52.4 µM) | > 64 | > 64 | 16 to 32 (≈ 26.2 to 52.4 µM) | > 64 | 4 to 8 (≈ 6.55 to 13.1 µM) | 16 to 32 (≈ 26.2 to 52.4 µM) | MIC (N. gonorrhoeae WHO Q; [19]): > 64 µg/mL
CCN1CCN(C(=O)NC(C(=O)N[C@H]2Cc3ccc(F)c(C(=O)O)c3OB2O)c2ncc(C(=O)O)cc2F)C(=O)C1=O (stereo partly drawn) [Example 33, 6-(2-(((R)-8-carboxy-7-fluoro-2-hydroxy-3,4-dihydro-2H-benzo[e][1,2]oxaborinin-3-yl)amino)-1-(4-ethyl-2,3-dioxopiperazine-1-carboxamido)-2-oxoethyl)-5-fluoronicotinic acid] | > 128 | > 128 | 2 to 4 (≈ 3.39 to 6.79 µM) | 32 to 64 (≈ 54.3 to 109 µM) | 0.5 to 1 (≈ 0.849 to 1.7 µM) | – | > 64 | > 64 | 16 to 32 (≈ 27.2 to 54.3 µM) | > 64 | 4 to 8 (≈ 6.79 to 13.6 µM) | 16 to 32 (≈ 27.2 to 54.3 µM) | – | – | – | – | – | – | – | – | –
NCCCN1CCN(C(=O)N[C@@H](C(=O)N[C@H]2Cc3cc(Cl)c(F)c(C(=O)O)c3OB2O)c2c(F)cc(O)c(O)c2Cl)C(=O)C1=O [Example 190, (R)-3-((R)-2-(4-(3-aminopropyl)-2,3-dioxopiperazine-1-carboxamido)-2-(2-chloro-6-fluoro-3,4-dihydroxyphenyl)acetamido)-6-chloro-7-fluoro-2-hydroxy-3,4-dihydro-2H-benzo[e][1,2]oxaborinine-8-carboxylic acid] | – | – | – | – | – | > 64 | > 64 | > 64 | > 64 | > 64 | 16 to 32 (≈ 23.7 to 47.5 µM) | > 64 | > 64 | – | – | – | – | – | – | – | –
CCN1CCN(C(=O)N[C@@H](C(=O)N[C@H]2Cc3cc(Cl)c(F)c(C(=O)O)c3OB2O)c2c(F)cc(O)c(O)c2Cl)C(=O)C1=O [Example 191, (R)-6-chloro-3-((R)-2-(2-chloro-6-fluoro-3,4-dihydroxyphenyl)-2-(4-ethyl-2,3-dioxopiperazine-1-carboxamido)acetamido)-7-fluoro-2-hydroxy-3,4-dihydro-2H-benzo[e][1,2]oxaborinine-8-carboxylic acid] | – | – | – | – | – | > 64 | > 64 | > 64 | > 64 | > 64 | 16 to 32 (≈ 24.8 to 49.6 µM) | > 64 | > 64 | – | – | – | – | – | – | – | –
CS(=O)(=O)N1CCN(C(=O)NC(C(=O)N[C@H]2Cc3ccc(F)c(C(=O)O)c3OB2O)c2c(Cl)cc(O)c(O)c2F)C1=O (stereo partly drawn) [Example 208, (3R)-3-(2-(6-chloro-2-fluoro-3,4-dihydroxyphenyl)-2-(3-(methylsulfonyl)-2-oxoimidazolidine-1-carboxamido)acetamido)-7-fluoro-2-hydroxy-3,4-dihydro-2H-benzo[e][1,2]oxaborinine-8-carboxylic acid] | – | – | – | – | – | – | – | – | – | – | – | – | – | > 64 | > 64 | > 64 | > 64 | > 64 | 4 to 8 (≈ 6.32 to 12.6 µM) | 16 to 32 (≈ 25.3 to 50.6 µM) | MIC (N. gonorrhoeae WHO Q; [19]): > 64 µg/mL
CCN1CCN(C(=O)N[C@H](C(=O)N[C@H]2Cc3ccc(F)c(C(=O)O)c3OB2O)c2ccc(O)c(O)c2)C(=O)C1=O [Example 210, (R)-3-((S)-2-(3,4-dihydroxyphenyl)-2-(4-ethyl-2,3-dioxopiperazine-1-carboxamido)acetamido)-7-fluoro-2-hydroxy-3,4-dihydro-2H-benzo[e][1,2]oxaborinine-8-carboxylic acid] | – | – | – | – | – | – | – | – | – | – | – | – | – | > 64 | > 64 | > 64 | > 64 | > 64 | > 64 | > 64 | MIC (N. gonorrhoeae WHO Q; [19]): > 64 µg/mL
CCN1CCN(C(=O)N[C@@H](C(=O)N[C@H]2Cc3ccc(F)c(C(=O)O)c3OB2O)c2ccc(O)c(O)c2)C(=O)C1=O [Example 211, (R)-3-((R)-2-(3,4-dihydroxyphenyl)-2-(4-ethyl-2,3-dioxopiperazine-1-carboxamido)acetamido)-7-fluoro-2-hydroxy-3,4-dihydro-2H-benzo[e][1,2]oxaborinine-8-carboxylic acid] | – | – | – | – | – | – | – | – | – | – | – | – | – | 16 to 32 (≈ 28.7 to 57.3 µM) | 16 to 32 (≈ 28.7 to 57.3 µM) | 16 to 32 (≈ 28.7 to 57.3 µM) | 16 to 32 (≈ 28.7 to 57.3 µM) | > 64 | 4 to 8 (≈ 7.16 to 14.3 µM) | 16 to 32 (≈ 28.7 to 57.3 µM) | MIC (N. gonorrhoeae WHO Q; [19]): 16 to 32 µg/mL (≈ 28.7 to 57.3 µM)
